In article PMC8580050, “Improvement of the antimicrobial potency, pharmacokinetic and pharmacodynamic properties of albicidin by incorporation of nitrogen atoms” (Chemical Science, 2021):
≈ marks a conversion by molar mass, not a printed value. Where two headings read alike, the source gives them in different places.

Columns and labels:
[1] = system: E. coli knockout mutants from the KEIO collection (TolC, tsx); assay: MIC on E. coli knockout mutants (KEIO collection); type: cell-based; conditions: for MIC: Escherichia coli
[2] = system: S. aureus (ciprofloxacin susceptible clinical isolate); assay: MIC, extended panel; type: cell-based; conditions: Staphylococcus aureus
Protocol: (§1) 1.1.1 In vitro experiments
(§2) Determination of Minimal inhibitory concentrations (MIC)
(§3) Approved Standard M07-A9.1
(§4) CFU mL-1. […] Albicidin and […]
(§5) and serially diluted in DMSO (100%). […]
(§6) in 0.1 N HCL, respectively.
(§7) One row of each well plate served as a […]
(§8) sterility control (only MHB II-media). […]
(§9) adding 5 µL DMSO to several wells. […]
(§10) for growth inhibition by naked eye.
(§11) Microorganisms and Cell Cultures (DSMZ): […]
(§12) Dr. Werner (Robert-Koch-Institut, Wernigerode, Germany): […]
(§13) for the following 11 pathogenic isolates: […]

[3] = system: K. pneumoniae (ciprofloxacin susceptible clinical isolate); assay: MIC, extended panel; type: cell-based, Klebsiella pneumoniae
Protocol: as §1, §2, §3, §4, §5, §6, §7, §8, §9, §10, §11, §12

[4] = Tolerability assessment; type: in vivo, CD-1 mice; conditions: intravenous injection, 50 mg kg^−1, mice
Protocol: Application volume of 5 ml kg-1 was used. Samples of K-EDTA blood were collected from each mouse […]
An individual blood cell count was performed for each sample. […]
performed with help of the grimace scale to monitor any changes in facial expression. […]
were sacrificed, and a macroscopic necropsy was performed to search for damaged organs. Data of blood cell count is given in Table S7 and reference values for measured blood cell parameters are given

[5] = system: B. subtilis DSM 10; assay: MIC determination (broth microdilution); type: cell-based; conditions: Bacillus subtilis, DSM10
Protocol: as §1, §2, §3, §4, §5, §6, §7, §8, §9, §10, §11

[6] = system: E. coli BW25113; assay: MIC determination (broth microdilution); type: cell-based; conditions: Escherichia coli
Protocol: as §1, §2, §3, §4, §5, §6, §7, §8, §9, §10, §11

[7] = target: T1, E. coli DNA gyrase (Escherichia coli, UniProt P0AES4+P0AES6); assay: E. coli gyrase supercoiling inhibition assay; type: biochemical; set-up: key: ↑: for stronger inhibition; ≈: for equal inhibition; ↓: for diminished inhibition compared to albicidin 1; conditions: constant concentration of 45 nM, compared to albicidin 1
T1 construct: purchased inspiralis Limited, Norwich, UK
T1 sequence (P0AES4 whole entry, one chain of several): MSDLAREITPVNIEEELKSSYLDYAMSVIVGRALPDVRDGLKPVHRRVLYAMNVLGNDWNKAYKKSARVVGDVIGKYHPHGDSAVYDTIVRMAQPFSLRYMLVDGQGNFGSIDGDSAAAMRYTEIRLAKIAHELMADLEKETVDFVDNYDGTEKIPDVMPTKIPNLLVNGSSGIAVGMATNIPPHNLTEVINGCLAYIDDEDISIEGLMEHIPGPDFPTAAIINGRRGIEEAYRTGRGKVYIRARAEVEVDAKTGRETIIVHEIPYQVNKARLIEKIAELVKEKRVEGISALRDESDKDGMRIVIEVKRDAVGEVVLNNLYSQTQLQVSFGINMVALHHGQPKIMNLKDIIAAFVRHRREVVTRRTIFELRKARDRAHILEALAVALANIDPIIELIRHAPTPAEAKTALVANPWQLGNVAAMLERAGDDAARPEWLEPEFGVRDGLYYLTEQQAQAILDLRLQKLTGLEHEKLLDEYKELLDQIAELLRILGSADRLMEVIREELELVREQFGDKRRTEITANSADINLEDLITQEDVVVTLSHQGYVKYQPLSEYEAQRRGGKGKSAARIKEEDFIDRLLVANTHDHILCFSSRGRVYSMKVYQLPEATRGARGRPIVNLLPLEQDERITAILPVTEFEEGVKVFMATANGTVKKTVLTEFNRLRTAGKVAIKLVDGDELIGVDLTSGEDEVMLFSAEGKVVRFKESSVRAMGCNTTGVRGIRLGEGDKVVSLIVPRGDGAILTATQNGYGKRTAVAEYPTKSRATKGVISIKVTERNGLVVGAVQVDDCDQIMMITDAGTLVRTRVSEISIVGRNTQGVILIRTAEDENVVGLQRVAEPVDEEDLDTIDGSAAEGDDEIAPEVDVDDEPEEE
Protocol: Escherichia coli Gyrase Supercoiling Inhibition Assay
loaded on an agarose gel.
2-15. […] Addition of DNA
All derivatives were tested at a concentration of […]

[8] = system: K. pneumoniae (ciprofloxacin resistant clinical isolate); assay: microbe, parasite or virus in culture; type: cell-based; conditions: Klebsiella pneumoniae
Protocol: as §1, §2, §3, §4, §5, §6, §7, §8, §9, §10, §11, §12

[9] = system: Salmonella Kentucky (ciprofloxacin resistant clinical isolate); assay: microbe, parasite or virus in culture; type: cell-based
Protocol: as §1, §2, §3, §4, §5, §6, §7, §8, §9, §10, §11, §12

[10] = system: E. coli DSM 1116 + 50% Human Serum; assay: MIC determination in presence of 50% human serum; type: cell-based; conditions: Escherichia coli, DSM1116
Excerpt: This investigation was completed by assessment of the antibacterial activity in presence of human plasma (50%) (Table 1), since high plasma protein binding can severely impair antibacterial activity and thus efficacy.
as §1, §2, §3, §4, §5, §6, §7, §8, §9, §10, §11

[11] = system: E. faecium (ciprofloxacin susceptible clinical isolate); assay: microbe, parasite or virus in culture; conditions: Enterococcus faecium
[12] = system: Salmonella Kentucky (ciprofloxacin susceptible clinical isolate); assay: MIC, extended panel; type: cell-based; conditions: Salmonella enterica
Protocol: as §1, §2, §3, §4, §5, §6, §7, §8, §9, §10, §11, §12

[13] = system: E. coli (ciprofloxacin susceptible clinical isolate); assay: MIC, extended panel; type: cell-based; conditions: Escherichia coli
Protocol: as §1, §2, §3, §4, §5, §6, §7, §8, §9, §10, §11, §12

[14] = system: S. aureus (ciprofloxacin resistant clinical isolate); assay: microbe, parasite or virus in culture; type: cell-based, Staphylococcus aureus
Protocol: as §1, §2, §3, §4, §5, §6, §7, §8, §9, §10, §11, §12, §13

[15] = system: M. luteus DSM1790; assay: MIC determination (broth microdilution); type: cell-based, Micrococcus luteus; conditions: Micrococcus luteus, DSM1790
Protocol: as §1, §2, §3, §4, §5, §6, §7, §8, §9, §10, §11

[16] = Pharmacokinetic study, i.v.
[17] = system: P. aeruginosa (ciprofloxacin susceptible clinical isolate); assay: MIC, extended panel; type: cell-based, Pseudomonas aeruginosa
Protocol: as §1, §2, §3, §4, §5, §6, §7, §8, §9, §10, §11, §12, §13

[18] = system: E. faecium (ciprofloxacin resistant clinical isolate); assay: microbe, parasite or virus in culture; type: cell-based; conditions: Enterococcus faecium
Protocol: as §1, §2, §3, §4, §5, §6, §7, §8, §9, §10, §11, §12, §13

[19] = system: P. aeruginosa (ciprofloxacin resistant clinical isolate); assay: microbe, parasite or virus in culture; type: cell-based; conditions: Pseudomonas aeruginosa
Protocol: as §1, §2, §3, §4, §5, §6, §7, §8, §9, §10, §11, §12, §13

[20] = system: E. coli DSM 1116; assay: MIC determination (broth microdilution); type: cell-based, Escherichia coli
Protocol: as §1, §2, §3, §4, §5, §6, §7, §8, §9, §10, §11

[21] = system: fluoroquinolone-resistant (FQR) E. coli isolate; assay: Murine septicaemia infection model; type: in vivo, CD-1 mice
Protocol: From a panel of clinical ESKAPE isolates one fluoroquinolone (FQR)-resistant E. coli strain was selected for the preparation of the infection model (Table S3 ^†). […] Bacterial payload (CFU) was measured from spleens and kidneys and compared to untreated control animals.
Pharmacokinetic calculations
1.1.3 Murine septicemia infection model
For in vivo infections study female CD-1 mice (RjOrl:SWISS, 6 weeks old) were purchased from Janvier Labs (Le Genest Saint Isle, France). The animals were allowed to acclimatize for at least seven days before the start of experiments. Group-Housing was realized in a pathogen-free, temperature- […]
and water ad libitum throughout the study. All experimental procedures were approved by and conducted in accordance to the institutional guidelines. […]
septicemia infection model. Following overnight incubation in Brain Heart infusion at 37°C, the strain was spin down at 2.500 rpm for 10 min. Immediately before use, bacteria pellet was resuspended in […]
For infection procedure, mice were briefly anesthetized with continuous inhalation of isoflurane.
100 µl of bacterial suspension were intravenously administered. At least nine animals were used for each of the following therapeutic groups:
- Untreated but infected animals: control group (PBS)
- Drug candidate, dose 1 group (6 mg kg-1);
- Drug candidate, dose 2 group (17 mg kg-1). […]
respectively. Animals were monitored for clinical signs throughout the whole study using a 4-point body condition score analyzing weight loss, respiratory distress, hampered mobility and hunched posture. Animals were euthanized after 24 hours of infection. Spleen and kidneys from each animal were removed, weighed, and homogenized in 2 mL of PBS and used for quantitative cultures on agar

[22] = system: A. baumannii (ciprofloxacin resistant isolate); assay: microbe, parasite or virus in culture; type: cell-based, Acinetobacter baumannii
Protocol: as §1, §2, §3, §4, §5, §6, §7, §8, §9, §10, §11, §12, §13

[23] = system: M. phlei DSM 750; assay: MIC determination (broth microdilution); type: cell-based, Mycobacterium phlei; conditions: Mycolicibacterium phlei, DSM750
Protocol: as §1, §2, §3, §4, §5, §6, §7, §8, §9, §10

[24] = system: S. Typhimurium TA100; assay: MIC determination (broth microdilution); type: cell-based, Salmonella typhimurium; conditions: Salmonella enterica; S. Typhimurium TA100; read-out: MIC
Protocol: as §1, §2, §3, §4, §5, §6, §7, §8, §9, §10, §11

[25] = system: E. coli (ciprofloxacin resistant clinical isolate); assay: microbe, parasite or virus in culture; type: cell-based, Escherichia coli
Protocol: as §1, §2, §3, §4, §5, §6, §7, §8, §9, §10, §11, §12

[26] = in vitro; conditions: plasma, pH 7.4
Protocol: Determination of plasma stability
Human and murine plasma aliquots (Sigma-Aldrich, Taufkirchen, Germany) were thawed and subsequently centrifuged at 3000 rpm for 10 min at 4°C. Resulting supernatant was diluted in the same volume of phosphate buffer (pH 7.4) to obtain a plasma concentration of 50% (v/v). Stock solutions of […]
concentration of 20 µM (5% DMSO). Following incubation at 37°C ice-cold methanol containing 30% […]
were centrifuged at 4000 rpm for 20 min at 4°C and 100 µL of supernatant were directly transferred to a fresh MS-vial. Samples were analyzed by LC/MS-MS experiments. Quantification of remaining compounds was performed by an external calibration curve of standard solutions in the range of […]

[27] = 50 mg kg-1 i.v., 2-compartment analysis

## COc1c(NC(=O)c2ccc(NC(=O)c3ccc(NC(=O)[C@H](Cc4c[nH]nn4)NC(=O)c4ccc(NC(=O)/C(C)=C/c5ccc(O)cc5)cc4)cn3)c(OC)c2O)ccc(C(=O)O)c1O [Compound 7]
[1]; read-out: antimicrobial activity (MIC), TolC (efflux transporter) knockout mutation
  MIC: ≤ 0.016 µg/mL
[1]; read-out: antimicrobial activity (MIC), before TolC knockout (parent strain)
  MIC: 0.063 µg/mL (≈ 0.0711 µM)
[1]; TolC knockout mutation
  increase of efficacy, factor: 4
[1]; knockout mutation of the tsx gene
  decrease in activity: 10 fold
[2]
  MIC: 0.016 µg/mL (≈ 0.0181 µM)
[3]; CIP sensitive K. pneumonia
  activity, times higher than 2: 8 times
[3]; Klebsiella pneumoniae
  MIC: 8 µg/mL (≈ 9.03 µM)
[4]
  adverse effects or histopathological observations (tolerability study): did not show any adverse effects or histopathological observations
[5]
  MIC: 0.063 µg/mL (≈ 0.0711 µM)
[6]
  MIC: ≤ 0.016 µg/mL
[7]
  E. coli gyrase inhibition: ↑
[8]
  MIC: 64 µg/mL (≈ 72.2 µM)
[9]; CIP-resistant Salmonella Kentucky
  activity, times higher compared to 2: 8 times
[9]; Salmonella enterica
  MIC: 0.016 µg/mL (≈ 0.0181 µM)
[10]
  MIC: 0.5 µg/mL
[11]
  MIC: 0.25 µg/mL (≈ 0.282 µM)
[12]
  MIC: 0.016 µg/mL (≈ 0.0181 µM)
[13]
  MIC: 0.016 µg/mL (≈ 0.0181 µM)
[14]; CIP-resistant S. aureus
  activity, times higher compared to 2: 8 times
[14]; Staphylococcus aureus
  MIC: 0.063 µg/mL (≈ 0.0711 µM)
[15]
  MIC: 0.031 µg/mL (≈ 0.035 µM)
[16]; [27]
  T1/2 kel, mean: 1.4 h
  T1/2 λz, mean: 8.3 h
[16]; 50 mg kg^−1 i.v., after 24 h
  plasma level as multiple of MIC for E. coli: higher than 5 times MIC
[17]; CIP sensitive P. aeruginosa
  activity, times higher than 2: 4 times
[17]; Pseudomonas aeruginosa
  MIC: 1 µg/mL (≈ 1.13 µM)
[18]
  MIC: 32 µg/mL (≈ 36.1 µM)
[19]
  MIC: 2 µg/mL (≈ 2.26 µM)
[20]; E. coli, strain not given
  MIC for E. coli: 0.016 µg/mL
[20]; Escherichia coli, DSM1116
  MIC: ≤ 0.016 µg/mL
[21]; 17 mg kg^−1 applied twice
  CFU reduction in kidney: > 2 log units
  CFU reduction in spleen: more than 3 log units
[21]; 17 mg kg^−1 applied twice, lethal dose of FQR clinical isolate E. coli
  survival: all mice survived
[21]; 6 and 17 mg kg^−1 i.v. twice, lethal dose of FQR resistant E. coli
  survival after 24 h: survived
[21]; both tested doses (6 and 17 mg kg^−1 i.v. twice), versus untreated control
  reduction of bacterial counts in kidneys: > 3 log 10 CFU g^−1
[22]; Acinetobacter baumannii
  MIC: 0.016 µg/mL (≈ 0.0181 µM)
[22]; CIP-resistant A. baumannii
  activity, times higher compared to 2: 125 times
[23]
  MIC: 0.25 µg/mL (≈ 0.282 µM)
[24]
  MIC: ≤ 0.016 µg/mL
[25]; CIP-resistant E. coli
  activity, times higher compared to 2: 4 times
[25]; Escherichia coli
  MIC: 0.016 µg/mL (≈ 0.0181 µM)
[26]; human
  half-life at 20 µM: > 4 h
[26]; mouse
  half-life at 20 µM: 1.58 h
